Source: article PMC8424217 (The Journal of Biological Chemistry, 2021)
Peptide text beside a SMILES is read from it. * marks the point of attachment. Palmitoyl = CCCCCCCCCCCCCCCC(=O)*

Legend:
Format in all cases: cell-based
[1] = molecular target: T1, hUT (Homo sapiens, UniProt Q9UKP6); test: ERK1/2 phosphorylation, western blot, CHO-hUT cells; parameters: expressed in transfected cells; host or cells: CHO-K1 cells stably expressing hUT (gift from H. Vaudry and C. Dubessy, University of Rouen); settings: for EC50 / effect of AG1478 (EGFR inhibitor) on ERK1/2 phosphorylation induced by the peptide / effect of PTX on ERK1/2 phosphorylation induced by the peptide / effect of U73122 (PLC inhibitor) on ERK1/2 phosphorylation induced by the peptide / time of second peak of ERK1/2 phosphorylation / time of maximal ERK1/2 phosphorylation: CHO-hUT; for EC50: 5 min stimulation, mean ± SEM of at least three independent experiments in triplicate, read-out: ERK1/2 phosphorylation pEC50 (converted); for effect of AG1478 (EGFR inhibitor) on ERK1/2 phosphorylation induced by the peptide: AG1478 5 μM 30 min pretreatment; for effect of AG1478 (EGFR inhibitor) on ERK1/2 phosphorylation induced by the peptide / effect of PTX on ERK1/2 phosphorylation induced by the peptide / effect of U73122 (PLC inhibitor) on ERK1/2 phosphorylation induced by the peptide: pepducin 10^−6 M, 5 min, n = 3; for effect of PTX on ERK1/2 phosphorylation induced by the peptide: PTX 200 ng/ml 24 h pretreatment; for effect of U73122 (PLC inhibitor) on ERK1/2 phosphorylation induced by the peptide: U73122 1 μM 60 min pretreatment; for time of second peak of ERK1/2 phosphorylation / time of maximal ERK1/2 phosphorylation: pepducins 10^−6 M; for time of maximal ERK1/2 phosphorylation: hUII 10^−7 M
T1 sequence (Q9UKP6 1-389): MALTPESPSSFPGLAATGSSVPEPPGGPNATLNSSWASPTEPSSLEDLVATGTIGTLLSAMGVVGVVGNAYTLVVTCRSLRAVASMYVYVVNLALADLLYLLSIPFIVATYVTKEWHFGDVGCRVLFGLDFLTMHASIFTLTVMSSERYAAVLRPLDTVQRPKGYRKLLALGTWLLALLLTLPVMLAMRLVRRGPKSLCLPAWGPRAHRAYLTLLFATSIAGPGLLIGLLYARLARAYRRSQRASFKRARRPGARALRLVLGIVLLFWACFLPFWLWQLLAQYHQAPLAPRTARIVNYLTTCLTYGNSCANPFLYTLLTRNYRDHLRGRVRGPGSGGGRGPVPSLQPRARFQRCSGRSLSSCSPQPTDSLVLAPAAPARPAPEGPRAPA
Protocol: Figure 3 IP1production (A and B) and ERK1/2phosphorylation (C and D) kinetics and concentration dependence following hUT activation. IP1 production was evaluated using the IP-One terbium immunoassay kits while ERK1/2 phosphorylation was measured by western blot in CHO-K1 cells stably expressing hUT. […] Each curve represents the mean ± SEM of at least three independent experiments performed in triplicate.
ERK1/2 phosphorylation was measured by western blot. […] Quantification of ERK1/2 phosphorylation level was performed in three independent experiments done in triplicate (mean ± SEM, n = 3, ∗∗∗p < 0.001, ∗∗p < 0.01, or ∗p < 0.05, versus control).
CHO cells stably expressing hUT (CHO-hUT; gift from Drs H. Vaudry et C. Dubessy, University of Rouen, France) were grown in 12-well plates to 70–80% confluence and starved for 6 h in a serum-free medium. […] Briefly, HEK 293-hUT cells, grown in 12-well plates to 70–80% confluence, were starved for 6 h in a serum-free medium. […] Cells were then rinsed twice with ice-cold PBS and homogenized in 0.5 ml of lysis buffer (20 mM Tris, 150 mM NaCl, 1 mM EDTA, 1 mM EGTA, 1% Triton X-100, 2.5 mM sodium pyrophosphate, 1 mM β-glycerolphosphate, 1 mM Na3VO4, 1 μg mL^−1 leupeptin, 1 mM PMSF, 1 mM DTT) at 4 °C. Insoluble material was removed by centrifugation at 12,000 rpm for 30 min. The extract was treated with Laemmli sample buffer and heated for 5 min at 95 °C. Aliquots were assayed for protein concentration (BioRad) and an equal amount of total protein was subjected to 12% SDS–PAGE, followed by transfer to a nitrocellulose membrane. The membrane was blocked and then probed with primary antibody (phospho-p44/42 MAPK) at the optimal dilution (1/2000) with gentle agitation overnight at 4 °C. After washing with TTBS, membranes were then incubated with secondary antibody, conjugated with horseradish peroxidase (anti-rabbit HRP) diluted in TBST containing 5% skim milk (w/v) for 1 h at room temperature. Immunoreactive species were visualized by enhanced chemiluminescence using X-ray film and Thermo Scientific SuperSignal chemiluminescent substrates according to the manufacturer's instructions. Films were digitized and the intensity of the immunoreactive bands determined using Quantity One software from Bio-Rad.

[2] = molecular target: T1, hUT; test: EGFR transactivation (EGFR-GFP internalization, confocal microscopy), HEK 293-hUT cells; parameters: expressed in transfected cells; settings: 30 min; for EGFR internalization: 10^−6 M; for EGFR transactivation after YM254890 (Gq inhibitor): YM254890 100 nM 1 h pretreatment, peptide 10^−6 M
Protocol: EGFR internalization, following hUT stimulation with various ligands for 30 min, was visualized using confocal microscopy. The images shown are from representative experiments repeated at least three times.
HEK 293 and HEK 293-hUT cells, transiently transfected with cDNA encoding fluorescently labeled EGFR (EGFR-GFP) (2 μg), were plated onto 35-mm glass-bottomed culture dishes (MatTek Corp). Following stimulation, cells were washed once with PBS and fixed in 4% paraformaldehyde for 15 min. To study the involvement of Gq in EGFR internalization, cells were treated with YM254890 (100 nM) for 1h prior peptide treatments. […] EGFR-GFP internalization was visualized using a combination of excitation (488 nm) and emission filters (499 and 520 nm).

[3] = molecular target: T1, hUT; test: G13 activation, BRET biosensor, HEK 293-hUT cells; parameters: expressed in transfected cells; settings: for EC50: HEK 293-hUT, BRET, mean ± SEM, n = 3–5, read-out: G13 activation pEC50 (converted)
Protocol: Figure 6 Signaling signature of hUT-pepducins following hUT receptor activation. […] Each curve represents mean ± SEM of at least three independent concentration-response experiments performed in triplicate.
HEK 293-hUT cells were grown in DMEM culture media supplemented with 10% foetal bovine serum, HEPES, sodium pyruvate, and G418 (200 μg mL^−1). Passages were performed when cells reached 80% of confluency. Cells were initially plated in 96-well plates at a density of 10,000 cells/well. The following day, the medium is replaced with DMEM culture media supplemented with 2.5% foetal bovine serum (FBS), and 12 h later, cells were transiently transfected with 25 ng/well of a Gq-polycistronic, 25 ng/well of a G12-polycistronic BRET sensor, 25 ng/well of a G13-polycistronic BRET sensor, 2.5 ng/well pIRESB RLucII-ERK-NLS-GFP BRET sensor, 2.5 ng β-arrestin 1-polycistronic BRET sensor, or 2.5 ng β-arrestin 2-polycistronic BRET sensor using Lipofectamine2000 at a ratio of 3:1 (Lipofectamine/plasmid DNA) in serum-free Opti-MEM ([44], [81]). Sixteen hours posttransfection, medium was replaced with DMEM supplemented with 10% FBS, HEPES, sodium pyruvate and G418 (200 μg mL^−1) and cell growth was resumed for another 16 h. Cells were washed with 150 μl PBS solution supplemented with 0.1% of glucose and then incubated with 80 μl of this solution for 2 h. Then, to evaluate Gq and G12 activation, 10 μl of a 1/20 dilution (diluted before use) of coelenterazine 400A (stock at 1 mM in ethanol) in Kreb's buffer and 10 μl of the 10× appropriate concentration of peptide were added, and the luminescence was evaluated with an Infinite M1000 PRO. […] Readings were performed after 5 min using an Infinite M1000 PRO. Filters were set at 410 nm and 515 nm for detecting the Renilla luciferase II (RlucII, donor) and green fluorescent protein 10 (GFP10, acceptor) light emission, respectively. BRET ratio was determined by calculating the ratio of the light emitted by GFP10 over the light emitted by the RlucII.

Emax at 1 µM [3] [%] | Compound | Emax [1] [%] | EC50 [1] [nM] | effect of AG1478 (EGFR inhibitor) on ERK1/2 phosphorylation induced by the peptide [1] | effect of PTX on ERK1/2 phosphorylation induced by the peptide [1] | effect of U73122 (PLC inhibitor) on ERK1/2 phosphorylation induced by the peptide [1] | time of second peak of ERK1/2 phosphorylation [1] | time of maximal ERK1/2 phosphorylation [1] [min] | EGFR internalization [2] | EGFR transactivation after YM254890 (Gq inhibitor) [2] | Emax [3] [%] | EC50 [3] [nM]
 | CCCCCCCCCCCCCCCC(=O)N[C@@H](Cc1c[nH]c2ccccc12)C(=O)N[C@@H](CC(C)C)C(=O)N[C@@H](CO)C(=O)N[C@@H](CCC(N)=O)C(=O)N[C@@H](CCCNC(=N)N)C(=O)N[C@@H](C)C(=O)N[C@@H](CO)C(=O)N[C@@H](Cc1ccccc1)C(=O)N[C@@H](CCCCN)C(=O)N[C@@H](CCCNC(=N)N)C(=O)N[C@@H](C)C(=O)N[C@@H](CCCNC(=N)N)C(=O)N[C@@H](CCCNC(=N)N)C(N)=O [[Trp^1, Leu^2]hUT-Pep3] (Palmitoyl-WLSQRASFKRARR-NH2) | 56 ± 2 | 200 | significantly reduced the ability of both hUT-derived pepducins to induce ERK1/2 phosphorylation | completely prevented | completely prevented | 60 min | 5 | significant internalization of EGFR-GFP | almost completely abolished | 185 ± 11 | 309
106 ± 5 | CC(C)[C@H](NC(=O)[C@@H]1CSSC[C@H](NC(=O)[C@H](CC(=O)O)NC(=O)[C@@H]2CCCN2C(=O)[C@@H](NC(=O)[C@@H](N)CCC(=O)O)[C@@H](C)O)C(=O)N[C@@H](Cc2ccccc2)C(=O)N[C@@H](Cc2c[nH]c3ccccc23)C(=O)N[C@@H](CCCCN)C(=O)N[C@@H](Cc2ccc(O)cc2)C(=O)N1)C(=O)O [hUII, urotensin II, reference compound] | 102 ± 2 |  |  | substantially reduced, or even suppressed |  |  | 5 | resulted in EGFR internalization |  |  | 
 | CCCCCCCCCCCCCCCC(=O)N[C@@H](CCCNC(=N)N)C(=O)N1CCC[C@H]1C(=O)N[C@@H](CC(C)C)C(=O)N[C@@H](CC(=O)O)C(=O)N[C@H](C(=O)N[C@H](C(=O)N[C@@H](CCC(N)=O)C(=O)N[C@@H](CCCNC(=N)N)C(=O)N1CCC[C@H]1C(=O)N[C@@H](CCCCN)C(=O)NCC(=O)N[C@@H](Cc1ccc(O)cc1)C(N)=O)C(C)C)[C@@H](C)O [hUT-Pep2] (Palmitoyl-RPLDTVQRPKGY-NH2) | 34 ± 2 | 55 | significantly reduced the ability of both hUT-derived pepducins to induce ERK1/2 phosphorylation | unaffected by PTX treatment | only partially affected by the PLC inhibitor | a similar pattern was not observed for hUT-Pep2 | 5 | significant internalization of EGFR-GFP | almost completely abolished | 154 ± 10 | 468
